From patent publication US20170190705A1, “Compositions and Methods for Inhibiting BMP” (THE BRIGHAM AND WOMAN'S HOSPITAL, INC., priority 2014, published 2017)

Tests used:
Assay type in all cases: biochemical
CDK1/cyclinB = CDK1/cyclinB (Homo sapiens, UniProt P06493); assay: Kinome profiling CDK1/cyclinB; details: read-out: Inhibitory activity CDK1/cyclinB; for inhibition at 0.1 µM: 100 nM
Description: (§1) . The kinome-wide selectivity was determined following the methods previously reported by Mohedas et al., ACS Chem Biol 2013, 8, 1291-1302 and Sanvitale et al., PLoS One 2013, 8, e62721.

SGK2 = target: T1, SGK2 (Homo sapiens, UniProt Q9HBY8); assay: Kinome profiling SGK2; details: read-out: Inhibitory activity SGK2; for inhibition at 0.1 µM: 100 nM
T1 sequence (Q9HBY8 1-367): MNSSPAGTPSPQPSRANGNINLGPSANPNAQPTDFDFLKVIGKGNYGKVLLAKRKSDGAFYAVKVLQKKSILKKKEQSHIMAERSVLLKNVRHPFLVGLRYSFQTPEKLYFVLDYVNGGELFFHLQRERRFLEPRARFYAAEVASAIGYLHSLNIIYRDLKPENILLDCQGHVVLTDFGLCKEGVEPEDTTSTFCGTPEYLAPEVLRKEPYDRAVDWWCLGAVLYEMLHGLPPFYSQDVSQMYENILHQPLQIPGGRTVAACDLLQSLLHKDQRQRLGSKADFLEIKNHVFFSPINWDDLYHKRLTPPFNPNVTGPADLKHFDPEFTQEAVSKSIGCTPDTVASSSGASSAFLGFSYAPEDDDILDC
Description: as §1

P38δ = target: T2, P38δ (Homo sapiens, UniProt O15264); assay: Kinome profiling P38δ; details: read-out: Inhibitory activity P38δ; for inhibition at 0.1 µM: 100 nM
T2 sequence (O15264 1-365): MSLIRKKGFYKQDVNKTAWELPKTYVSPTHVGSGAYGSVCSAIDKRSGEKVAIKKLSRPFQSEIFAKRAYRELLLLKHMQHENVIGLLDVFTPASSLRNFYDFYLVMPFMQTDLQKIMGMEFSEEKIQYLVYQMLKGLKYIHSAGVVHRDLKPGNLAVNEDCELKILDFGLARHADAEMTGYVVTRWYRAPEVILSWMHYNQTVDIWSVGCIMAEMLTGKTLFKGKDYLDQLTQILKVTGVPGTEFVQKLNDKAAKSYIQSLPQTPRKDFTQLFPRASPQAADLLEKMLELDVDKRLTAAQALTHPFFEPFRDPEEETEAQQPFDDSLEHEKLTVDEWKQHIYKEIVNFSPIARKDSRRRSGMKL
Description: as §1

PRKG2 = target: T3, PRKG2 (Homo sapiens, UniProt Q13237); assay: Kinome profiling PRKG2; details: read-out: Inhibitory activity PRKG2; for inhibition at 0.1 µM: 100 nM
T3 sequence (Q13237 1-762): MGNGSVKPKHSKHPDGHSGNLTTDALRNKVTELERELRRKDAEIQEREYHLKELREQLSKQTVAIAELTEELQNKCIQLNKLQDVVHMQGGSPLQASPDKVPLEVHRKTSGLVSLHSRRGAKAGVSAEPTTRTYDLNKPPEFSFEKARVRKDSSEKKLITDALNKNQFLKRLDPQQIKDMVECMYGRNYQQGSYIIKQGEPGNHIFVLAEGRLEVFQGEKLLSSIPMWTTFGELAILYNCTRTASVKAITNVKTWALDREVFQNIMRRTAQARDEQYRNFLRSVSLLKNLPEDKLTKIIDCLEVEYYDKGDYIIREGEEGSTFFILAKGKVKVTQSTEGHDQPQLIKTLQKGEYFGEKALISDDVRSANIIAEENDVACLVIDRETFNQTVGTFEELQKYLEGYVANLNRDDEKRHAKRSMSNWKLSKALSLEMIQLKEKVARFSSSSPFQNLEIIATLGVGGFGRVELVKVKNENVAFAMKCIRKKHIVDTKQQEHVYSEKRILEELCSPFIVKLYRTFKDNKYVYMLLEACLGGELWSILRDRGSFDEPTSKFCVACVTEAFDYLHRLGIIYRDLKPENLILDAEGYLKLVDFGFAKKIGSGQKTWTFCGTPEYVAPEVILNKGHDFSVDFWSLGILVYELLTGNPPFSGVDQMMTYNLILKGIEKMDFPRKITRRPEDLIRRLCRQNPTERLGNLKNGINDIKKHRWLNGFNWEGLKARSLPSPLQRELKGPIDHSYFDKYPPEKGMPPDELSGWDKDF
Description: as §1

PAK2 = PAK2 (Homo sapiens, UniProt Q13177); assay: Kinome profiling PAK2; details: read-out: Inhibitory activity PAK2; for inhibition at 0.1 µM: 100 nM
Sequence of PAK2 (Q13177 whole entry): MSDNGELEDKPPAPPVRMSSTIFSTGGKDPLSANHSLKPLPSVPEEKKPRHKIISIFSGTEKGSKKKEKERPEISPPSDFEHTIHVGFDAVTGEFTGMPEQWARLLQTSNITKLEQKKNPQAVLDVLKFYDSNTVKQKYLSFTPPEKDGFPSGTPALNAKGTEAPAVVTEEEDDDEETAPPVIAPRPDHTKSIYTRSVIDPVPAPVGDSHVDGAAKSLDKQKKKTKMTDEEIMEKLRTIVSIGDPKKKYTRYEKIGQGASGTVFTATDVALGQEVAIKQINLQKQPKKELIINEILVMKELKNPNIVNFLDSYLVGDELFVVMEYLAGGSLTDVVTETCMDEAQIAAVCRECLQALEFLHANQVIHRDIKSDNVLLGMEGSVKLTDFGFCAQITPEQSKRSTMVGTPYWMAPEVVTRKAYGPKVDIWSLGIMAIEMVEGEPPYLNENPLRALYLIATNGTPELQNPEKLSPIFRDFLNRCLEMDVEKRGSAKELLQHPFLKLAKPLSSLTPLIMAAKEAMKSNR
Description: as §1

PAK3 = PAK3 (Homo sapiens, UniProt O75914); assay: Kinome profiling PAK3; details: read-out: Inhibitory activity PAK3; for inhibition at 0.1 µM: 100 nM
Sequence of PAK3 (O75914 whole entry): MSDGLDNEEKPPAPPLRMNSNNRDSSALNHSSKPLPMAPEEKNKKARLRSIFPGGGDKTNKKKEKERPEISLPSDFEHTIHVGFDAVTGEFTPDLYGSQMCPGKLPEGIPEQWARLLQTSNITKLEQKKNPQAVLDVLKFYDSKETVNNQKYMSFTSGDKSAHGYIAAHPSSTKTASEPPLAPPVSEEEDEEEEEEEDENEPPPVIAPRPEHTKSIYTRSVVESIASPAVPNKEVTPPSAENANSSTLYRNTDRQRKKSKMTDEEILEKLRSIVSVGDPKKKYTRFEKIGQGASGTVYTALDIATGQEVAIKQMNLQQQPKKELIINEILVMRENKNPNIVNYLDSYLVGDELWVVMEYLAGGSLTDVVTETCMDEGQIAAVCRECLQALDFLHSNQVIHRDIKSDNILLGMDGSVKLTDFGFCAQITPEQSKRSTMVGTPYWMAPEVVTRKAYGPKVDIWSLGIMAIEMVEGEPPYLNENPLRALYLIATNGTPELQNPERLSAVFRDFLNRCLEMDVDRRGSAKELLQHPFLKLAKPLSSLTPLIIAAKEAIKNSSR
Description: as §1

PHKγ2 = target: T4, PHKγ2 (Homo sapiens, UniProt P15735); assay: Kinome profiling PHKγ2; details: read-out: Inhibitory activity PHKγ2; for inhibition at 0.1 µM: 100 nM
T4 sequence (P15735 1-406): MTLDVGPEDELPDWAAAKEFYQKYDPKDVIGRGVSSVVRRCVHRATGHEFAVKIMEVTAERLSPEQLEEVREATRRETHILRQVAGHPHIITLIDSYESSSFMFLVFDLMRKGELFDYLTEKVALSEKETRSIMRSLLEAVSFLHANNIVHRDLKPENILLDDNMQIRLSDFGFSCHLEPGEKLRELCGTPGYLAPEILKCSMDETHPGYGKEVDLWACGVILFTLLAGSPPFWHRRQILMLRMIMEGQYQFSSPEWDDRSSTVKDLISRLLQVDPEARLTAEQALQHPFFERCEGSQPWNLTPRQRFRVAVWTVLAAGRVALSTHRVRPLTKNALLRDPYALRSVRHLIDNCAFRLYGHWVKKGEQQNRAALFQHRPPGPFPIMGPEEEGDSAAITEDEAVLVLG
Description: as §1

Sequence of CDK1/cyclinB (P06493 whole entry): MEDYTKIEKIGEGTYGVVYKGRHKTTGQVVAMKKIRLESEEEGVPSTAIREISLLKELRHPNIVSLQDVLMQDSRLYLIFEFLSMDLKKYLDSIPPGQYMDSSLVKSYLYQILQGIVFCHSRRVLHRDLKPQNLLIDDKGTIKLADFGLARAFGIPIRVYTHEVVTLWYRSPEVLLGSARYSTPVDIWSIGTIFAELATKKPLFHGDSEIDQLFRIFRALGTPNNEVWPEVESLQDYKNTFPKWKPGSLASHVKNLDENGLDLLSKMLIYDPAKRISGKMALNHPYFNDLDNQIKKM
Sequence of CDK1/cyclinB (P14635 whole entry partner): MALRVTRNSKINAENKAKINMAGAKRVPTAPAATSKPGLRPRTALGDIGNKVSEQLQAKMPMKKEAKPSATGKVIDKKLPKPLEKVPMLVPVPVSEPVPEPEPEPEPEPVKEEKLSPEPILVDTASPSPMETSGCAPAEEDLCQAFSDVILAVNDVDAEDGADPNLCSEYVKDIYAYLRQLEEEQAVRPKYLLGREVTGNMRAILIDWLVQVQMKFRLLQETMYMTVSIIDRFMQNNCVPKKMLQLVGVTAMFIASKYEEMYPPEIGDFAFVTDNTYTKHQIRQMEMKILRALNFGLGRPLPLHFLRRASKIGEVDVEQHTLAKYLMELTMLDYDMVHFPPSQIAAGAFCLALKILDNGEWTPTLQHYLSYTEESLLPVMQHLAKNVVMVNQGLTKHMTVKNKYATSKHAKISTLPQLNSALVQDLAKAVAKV

| SMILES | inhibition at 0.1 µM (CDK1/cyclinB) | inhibition at 1 µM (CDK1/cyclinB) | inhibition at 0.1 µM (SGK2) | inhibition at 1 µM (SGK2) | inhibition at 0.1 µM (P38δ) | inhibition at 1 µM (P38δ) | inhibition at 0.1 µM (PRKG2) | inhibition at 1 µM (PRKG2) | inhibition at 0.1 µM (PAK2) | inhibition at 1 µM (PAK2) | inhibition at 0.1 µM (PAK3) | inhibition at 1 µM (PAK3) | inhibition at 0.1 µM (PHKγ2) | inhibition at 1 µM (PHKγ2) |
| --- | --- | --- | --- | --- | --- | --- | --- | --- | --- | --- | --- | --- | --- | --- |
| COc1cc(-c2cc(-c3ccc(N4CCNCC4)cc3)cnc2N)cc(OC)c1OC [Compound 15, 5-(4-(piperazin-1-yl)phenyl)-3-(3,4,5-trimethoxyphenyl)pyridin-2-amine] | -1% | 0% | 2% | 3% | 2% | 1% | 0% | 1% | 0% | 1% | 1% | 1% | 2% | 3% |
| COc1cc(-c2cc(-c3ccc(N4CCNCC4)cc3)cnc2C)cc(OC)c1OC [Compound 10, 1-(4-(6-methyl-5-(3,4,5-trimethoxyphenyl)pyridin-3-yl)phenyl)piperazine] | 2% | 3% | 1% | -1% | 1% | -1% | 0% | 4% | 0% | 1% | 2% | 2% | 1% | 0% |
